Measured values taken from ChEMBL document CHEMBL1255512, “Pyrazolo[1,5-a]pyrimidine acetamides: 4-Phenyl alkyl ether derivatives as potent ligands for the 18 kDa translocator protein (TSPO)” (Bioorg Med Chem Lett, 2010).

Experiment: Displacement of [3H]Ro151788 from CBR in rat […]
Format: tissue-based

| Ki [µM] | Structure (SMILES) |
| --- | --- |
| > 10 | CCN(CC)C(=O)Cc1c(-c2ccc(OCCF)cc2)nn2c(C)cc(C)nc12 [DPA-714] |
| > 10 | CCC(C)N(C)C(=O)c1cc2ccccc2c(-c2ccccc2Cl)n1 (stereo not drawn) [PK-11195] |
| > 10 | CCN(CC)C(=O)Cc1c(-c2ccc(OC)cc2)nn2c(C)cc(C)nc12 |
